In patent US20240335394A1 (Ludwig Institute for Cancer Research Ltd, priority 2021, published 2024):

Experiments:
[1] = system: syngeneic MC38 tumors; experiment: MC38 study: anti-PD1 antibody alone or with methanol or sodium formate, tumor volume and survival; assay type: in vivo, C57BL/6 mice
Description: Tumor volumes were measured by caliper twice weekly.

[2] = system: MC38 cells; experiment: MC38 rechallenge of mice that cleared tumors; assay type: in vivo; settings: 6 mice cleared by methanol plus anti-PD1, reinoculated with 5×10^5 MC38 cells on opposite flank, untreated, observed three weeks
Source text: The rechallenged mice were monitored twice weekly for tumor growth for three weeks. Fifteen age-matched, tumor-naïve control mice were simultaneously inoculated as a control. The mice were not treated during the observation interval.

[3] = humans; cited from earlier work
[4] = primates; cited from earlier work
[5] = in vivo; cited from earlier work
[6] = system: 1C-starved T-cells; settings: formate supplementation; cited from earlier work
[7] = Body weight in the MC38 study; settings: methanol 2 g/kg daily oral gavage or sodium formate 0.5% w/v in drinking water, with anti-PD1
Description: Female C57BL/6 mice (10 per group) were inoculated subcutaneously with 5×10^5 MC38 syngeneic mouse tumor cells. […] Tumor volumes were measured by caliper twice weekly.

SMILES	response to anti-PD1 therapy ([1]; methanol 2 g/kg daily oral gavage plus anti-PD1 antibody 5 mg/kg ip twice weekly, compared to vehicle or sodium formate)	synergy with immunotherapy in a mouse model of cancer ([1]; mouse model of cancer)	tumor development after rechallenge [2]	lethal dose [3]	formate levels at which symptomatic toxicity is observed [4]	elimination [5]	T-cell activity [6]	effects on body weight [7]
CO [methanol]	improved response to anti-PD1 therapy	synergize with immunotherapy	did not develop tumors	300 to 1000 mg/kg	–	–	–	–
O=C[O-].[Na+] [sodium formate]	–	–	–	–	greater than 8 mM	too rapidly eliminated to dose directly	rescues T-cell activity	No effects on body weight
